# From ChEMBL document CHEMBL2417497, “Lead identification of novel and selective TYK2 inhibitors” (Eur J Med Chem, 2013)
# Key:
# physchem [1] = settings: aqueous, pH 7.4
# physchem [2] = settings: octanol/aqueous phosphate buffered saline, pH 7.4
# in vitro [3] = settings: plasma
# in vitro [4] = settings: human, plasma
# in vitro [5] = settings: rat, plasma
# in vitro [6] = settings: mouse, plasma
# in vivo [7] = settings: Sprague-Dawley, rat, po, 5 mg/kg
# in vivo [8] = settings: mouse, po, 5 mg/kg
# in vivo [9] = settings: Sprague-Dawley, rat, po, 5 mg/kg; remark: listed apart in the source
smiles,measurement,setting,value
O=C(Nc1ccncc1)c1c(Cl)cccc1Cl,solubility,physchem [1],630 µg/mL
same,logD at 1 h,physchem [2],2.2
same,fraction unbound,in vitro [3],0.3
O=C(Nc1ccnc(NC(=O)C2CC2)c1)c1c(Cl)cccc1Cl,fraction unbound,in vitro [4],0.05
same,fraction unbound,in vitro [5],0.04
same,fraction unbound,in vitro [6],0.04
same,bioavailability,in vivo [7],105%
same,Cmax,in vivo [8],1600 nM
same,Cmax,in vivo [9],2500 nM
